Experimental data as given in patent US12121500B2, “Inhibitors of Bunyaviridae and uses thereof” (priority 2020, dated 2024).
Values after ≈ are worked out from the molar mass of the structure shown. Where two headings read alike, the source gives them in different places.

Legend:
[1] = tested on: RVFV; assay: microbe, parasite or virus in culture; assay type: cell-based, Rift Valley Fever Virus
[2] = tested on: Staphylococcus spp.; assay: Inhibition of Staphylococcus spp. growth, broth microdilution; assay type: cell-based, S. saprophyticus or S. aureus; details: 16-24 hours, Mueller-Hinton broth, — = no measurable MIC80; for MIC80: Staphylococcus
[3] = tested on: Escherichia coli; assay: Inhibition of Escherichia coli growth, broth microdilution; assay type: cell-based; details: 16-24 hours, Mueller-Hinton broth, — = inactive; for MIC80: Escherichia coli, read-out: E. coli (MIC80)
[4] = tested on: C. neoformans; assay: Inhibition of C. neoformans growth, limiting dilution assay; assay type: cell-based, Cryptococcus neoformans; details: Cryptococcus neoformans; 48 hours at 35° C., YNB-02; read-out: C. neoformans (MIC80)
[5] = Quantitative cytotoxicity in Vero cells, crystal violet staining of EC50 plates; details: African green monkey
[6] = biological target: T1, human ribonuclease H1 (Homo sapiens, UniProt O60930); assay: biochemical; assay type: biochemical
T1 construct: made in house; host or cells: E. coli
T1 sequence (O60930 1-286): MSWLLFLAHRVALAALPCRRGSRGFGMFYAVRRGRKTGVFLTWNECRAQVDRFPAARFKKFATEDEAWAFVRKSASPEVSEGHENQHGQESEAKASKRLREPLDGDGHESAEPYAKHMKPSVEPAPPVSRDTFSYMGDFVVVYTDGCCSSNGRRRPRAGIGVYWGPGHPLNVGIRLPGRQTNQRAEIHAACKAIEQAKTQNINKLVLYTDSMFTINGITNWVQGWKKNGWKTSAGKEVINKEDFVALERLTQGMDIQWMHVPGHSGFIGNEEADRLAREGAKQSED

[7] = Cytotoxicity in HepDES19 cells, MTS assay; details: human, HepDES19 cells (HepG2-derived hepatoblastoma cell line)
[8] = tested on: RVFV strain MP12; assay: microbe, parasite or virus in culture; assay type: cell-based, Rift Valley Fever Virus; details: for EC50: Rift Valley fever virus, Vero, read-out: Estimated EC50
[9] = tested on: RVFV; assay: microbe, parasite or virus in culture; assay type: cell-based, Rift Valley Fever Virus; details: Rift Valley fever virus, A549, 24 h
[10] = in vitro; details: African green monkey
[11] = in vitro; details: human
[12] = tested on: HepDES19; assay: Cytotoxicity in HepDES19 cells, MTS assay; details: read-out: CC50 HepDES19; HepDES19 cells, 3 days, MTS; * marks limit value
[13] = Rift Valley fever virus, Vero, 24 h, read-out: RVFV (EC50, μM)

Row | Compound | EC50 [1, 13] | MIC80 [2] | MIC80 [3] | MIC80 [4] | CC50 at 1 day [5] | Human RNaseH1 (IC50, μM) [6] | IC50 [6] | Staphylococcus spp. (MIC80, μM) [2] | E. coli (MIC80, μM) [3] | CC50 at 3 days [7] | EC50 [8] | IC50 ([6]; read-out: Human RNaseH1 (IC50)) | EC50 [9] | EC50 ([9]; read-out: EC50 in A549 cells) | CC50 [10] | CC50 [11] | CC50 [12] | activity against RVFV in the primary screen, in words [8] | EC50 ([1]; read-out: RVFV (EC50))
1 | CC(C)c1ccc(O)c(=O)c(O)c1 [Compound 46, β-thujaplicinol] | 13.8 µM | 20 µM (≈ 3.6 µg/mL) | 44 µM (≈ 7.93 µg/mL) | 8 µM (≈ 1.44 µg/mL) | > 250 µM |  |  |  |  |  |  |  |  |  |  |  |  |  | 
2 | Cc1cc(O)c(=O)c(O)cc1C(=O)c1ccc(-c2ccncc2)cc1 [Compound 260] | 31.6 µM |  |  | 50 µM (≈ 16.7 µg/mL) | > 250 µM | poorly active or inactive | 277 µM | poorly active or inactive | poorly active or inactive | 45 µM |  |  |  |  |  |  |  |  | 
3 | Cc1cc(O)c(=O)c(O)cc1C(=O)c1cccs1 [Compound 308] | 0.54 µM | 44 µM (≈ 11.5 µg/mL) | 25 µM (≈ 6.56 µg/mL) | 11 µM (≈ 2.89 µg/mL) | 217 µM |  |  |  |  |  | 2 µM | 46 µM | 8.36 µM | 8.4 µM | 111 µM | 119 µM |  |  | 
4 | Cc1cc(O)c(=O)c(O)cc1C(=O)c1ccccc1O [Compound 311] | 11.6 µM | 67 µM (≈ 18.2 µg/mL) | 30 µM (≈ 8.17 µg/mL) | 15 µM (≈ 4.08 µg/mL) | > 250 µM |  | 26 µM |  |  |  | 3 µM |  |  |  | 115 µM |  |  |  | 
5 | CC(=O)c1c(C)cc(O)c(=O)c(O)c1-c1ccccc1 [Compound 330] | 9.5 µM | 44 µM (≈ 11.9 µg/mL) |  | 4 µM (≈ 1.08 µg/mL) | > 300 µM |  | 476 µM |  |  | 56.2 µM | 2 µM |  | 42.6 µM |  |  | ≥ 120 µM |  |  | 
6 | CC(=O)c1c(C)cc(O)c(=O)c(O)c1-c1cccc2ccccc12 [Compound 331] | 15.8 µM | 67 µM (≈ 21.5 µg/mL) |  | 11 µM (≈ 3.52 µg/mL) | 80.4 µM |  | 448 µM |  |  | 36.6 µM | 2 µM |  | 17.7 µM |  |  | ≥ 120 µM |  |  | 
7 | Cc1cc(O)c(=O)c(O)cc1C(=O)c1ccc(Br)cc1 [Compound 358] | 9 µM |  | 20 µM (≈ 6.7 µg/mL) | 11 µM (≈ 3.69 µg/mL) | > 250 µM |  | 43 µM |  |  | 12.5 µM |  |  |  |  |  |  |  |  | 
8 | Cc1cc(O)c(=O)c(O)cc1C(=O)c1cccc(Br)c1 [Compound 359] | 5.1 µM |  |  | 24 µM (≈ 8.04 µg/mL) | 170 µM |  |  |  |  |  | 4 µM |  |  |  |  |  | 19.4 µM |  | 
9 | Cc1cc(O)c(=O)c(O)c(O)c1C(=O)c1ccc(-c2ccccc2)cc1 [Compound 362] | 2.6 µM |  |  | 24 µM (≈ 8.36 µg/mL) | 77.8 µM |  |  |  | inactive |  | 6 µM | 212 µM |  |  |  |  | 5.4 µM |  | 
10 | Cc1cc(O)c(=O)c(O)cc1C(=O)NCc1ccccc1 [Compound 388] | 9 µM | 67 µM (≈ 19.1 µg/mL) | 67 µM (≈ 19.1 µg/mL) | 11 µM (≈ 3.14 µg/mL) | 239 µM |  | 166 µM |  |  | 19.8 µM | 19 µM |  |  |  |  |  |  | active | 
11 | Cc1cc(O)c(=O)c(O)cc1C(=O)Nc1ccccc1 [Compound 389] | 8.8 µM | 44 µM (≈ 11.9 µg/mL) | 44 µM (≈ 11.9 µg/mL) | 3.5 µM (≈ 0.949 µg/mL) | > 250 µM | nearly inactive | 309 µM | good to moderate activity | good to moderate activity | 26.5 µM | 16 µM |  |  |  |  |  |  | active | 
12 | C/C(=N\c1cccc(Oc2ccccc2)c1)c1c(C)cc(=O)n(O)c1O [Compound 515] | 24.3 µM |  |  | 11 µM (≈ 3.85 µg/mL) | > 120 µM |  | 622 µM |  |  | 71.3 µM | 14 µM |  | ≥ 120 µM |  | ≥ 120 µM | 93.6 µM |  |  | 
13 | C/C(=N\c1ccc(C(F)(F)F)cc1)c1c(C)cc(=O)n(O)c1O [Compound 517] | > 120 µM |  |  | 24 µM (≈ 7.83 µg/mL) | > 120 µM |  | 135 µM |  |  | 91 µM | 13 µM |  | 95.8 µM |  | ≥ 120 µM | 71.8 µM |  |  | 
14 | C/C(=N\c1ccc(Cl)c(Cl)c1)c1c(C)cc(O)n(O)c1=O [Compound 670] | 14 to 20 µM |  |  | 69 µM (≈ 22.6 µg/mL) | > 120 µM |  |  |  |  |  | 10 µM | 356 µM | 15.3 µM |  | ≥ 120 µM | ≥ 120 µM | 69 µM |  | 14 µM
15 | CCCCSc1ccc(SCCCC)c(O)c(=O)c1O [Compound 694] | 3.7 µM | 9 µM (≈ 2.83 µg/mL) |  | 2.3 µM (≈ 0.723 µg/mL) | 22.1 µM |  | > 500 µM |  |  |  | 6 µM |  |  |  | ≥ 120 µM |  | 1.8 µM |  | 
16 | CC(C)Sc1ccc(SC(C)C)c(O)c(=O)c1O [Compound 696] | 6 µM | 13 µM (≈ 3.72 µg/mL) | 20 µM (≈ 5.73 µg/mL) | 1.5 µM (≈ 0.43 µg/mL) | 56.5 µM |  |  |  |  |  | 12 µM |  |  |  | 118 µM |  | 14.1 µM |  | 
17 | CCCCCCSc1cccc(O)c(=O)c1O [Compound 840] | 31.6 µM |  |  | 1 µM (≈ 0.254 µg/mL) | > 120 µM |  | 73 µM |  |  | 21.5 µM | 14 µM |  | 15.4 µM |  | ≥ 120 µM | ≥ 120 µM |  |  | 
18 | Cc1cc(O)c(=O)c(O)cc1C(=O)NC(CCC(=O)OC(C)(C)C)C(=O)OC(C)(C)C (stereo not shown) [Compound 867] | 8.7 µM |  |  | 9 µM (≈ 3.94 µg/mL) | > 120 µM |  | > 500 µM |  |  |  | 7 µM |  | 33 µM |  | ≥ 120 µM | ≥ 120 µM | 5.2 µM |  | 
19 | Cc1cc(O)c(=O)c(O)cc1C(=O)N1CCN(C(c2ccc(F)cc2)c2ccc(F)cc2)CC1 [Compound 1017] | 8 µM |  |  | 6 µM (≈ 2.8 µg/mL) | 54.7 µM |  |  |  |  |  | 3 µM |  |  |  | ≥ 120 µM |  | 3.9 µM |  | 
